In the assay the test system is Toxoplasma gondii RH-2F tachyzoites. The assay is described as follows: microbe, parasite or virus in culture. To be noted: 72 h.
The mark [1] stands for this setting: read-out: Parasite inhibition (%) mean, preliminary screen of compound library, mean.
Setting [2] is: read-out: Parasite inhibition (%) mean, preliminary screen, mean.

From paper PMC7216583 (Parasites & Vectors, 2020) come the findings set out here.

Structures can show the parent of a compound that is named as a salt. Where two headings read alike, the source gives them in different places.

As for `C=CC(=O)Nc1ccc2ncnc(Nc3cccc(Br)c3)c2c1` [PD168393], the inhibition of growth at 5 µM under setting [1] is -0.1%.

As to `O=C(NOCC(O)CO)c1cc(Br)c(F)c(F)c1Nc1ccc(I)cc1F` (stereo not shown) [PD318088], the inhibition of growth at 5 µM under setting [2] was -12.9%. Same read-out and setting: the value for `O=C(NOC[C@H](O)CO)c1ccc(F)c(F)c1Nc1ccc(I)cc1F` [PD0325901] was -6.9%. Same read-out and setting: in the case of `CCCN1CCO[C@@H]2c3cc(O)ccc3OC[C@@H]21` [PD 128907 HCl] it was 1.8%. In the case of `O=C(Nc1cccnc1)N1CCC(Cc2cccc(Oc3ccc(C(F)(F)F)cn3)c2)CC1` [PF-3845], the inhibition of growth at 5 µM under setting [1] was 6.7%. Still for that read-out and setting: in the case of `CN(C)C1CCN(C(=O)c2ccc(NC(=O)Nc3ccc(-c4nc(N5CCOCC5)nc(N5CCOCC5)n4)cc3)cc2)CC1` [PF-05212384 (PKI-587)] it was 40.5%. Consider `COc1ccccc1S(=O)(=O)Nc1ccc2c(c1)CN(C)C(=O)N2` [PFI-1], for which the inhibition of growth at 5 µM under setting [2] turned out to be 2.2%.

Regarding `Nc1ncnc2c1c(-c1cnc3[nH]ccc3c1)nn2C1CCCC1` [PP-121], the inhibition of growth at 5 µM under setting [1] worked out at 36.8%.

For `C[C@@]12C[C@@]3(O)O[C@@H](O1)[C@]1(COC(=O)c4ccccc4)[C@H]3C[C@@]12O[C@@H]1O[C@H](CO)[C@@H](O)[C@H](O)[C@H]1O` [Paeoniflorin], the inhibition of growth at 5 µM under setting [1] turned out to be 0.7%.

On to `CCOc1cc2ncc(C#N)c(Nc3ccc(F)c(Cl)c3)c2cc1NC(=O)/C=C/CN(C)C` [Pelitinib (EKB-569)], for which, under setting [2], the inhibition of growth at 5 µM was -28.8%. For `N=C(N)c1ccc(OCCCCCOc2ccc(C(=N)N)cc2)cc1` [Pentamidine HCl], the inhibition of growth at 5 µM under setting [1] is 23.6%.

For `O=C1c2ccccc2C(=O)C1c1ccccc1` [Phenindione (Rectadione)], the inhibition of growth at 5 µM under setting [1] was -1.7%. Same read-out and setting: the value for `CC[C@@H]1/C=C(\C)C[C@H](C)C[C@H](OC)[C@H]2O[C@@](O)(C(=O)C(=O)N3CCCC[C@H]3C(=O)O[C@H](/C(C)=C/[C@@H]3CC[C@H](Cl)[C@H](OC)C3)[C@H](C)[C@@H](O)CC1=O)[C@H](C)C[C@@H]2OC` [Pimecrolimus] was -12.9%. On to `Cc1ccc(C(=O)Nc2ccc(CN3CCN(C)CC3)c(C(F)(F)F)c2)cc1C#Cc1cnc2cccnn12` [Ponatinib (AP24534)], for which, under setting [2], the inhibition of growth at 5 µM worked out at 49.3%.

For `CC(C)N(CCNC(=O)CN1CCCC1=O)C(C)C` [Pramiracetam], the inhibition of growth at 5 µM under setting [1] was 24.1%.

For the compound `C[C@]12C=CC(=O)C=C1CC[C@@H]1[C@H]2C(=O)C[C@@]2(C)[C@H]1CC[C@@]2(O)C(=O)CO` [Prednisone (Adasone)], the inhibition of growth at 5 µM under setting [1] turned out to be 33.8%.

In the case of `CCCNC(C)C(=O)Nc1ccccc1C` (stereo not shown) [Prilocaine], under setting [1], the inhibition of growth at 5 µM was -21.8%. On to `CN(C)C(=O)Oc1ccc[n+](C)c1` [Pyridostigmine Bromide (Mestinon)], for which, under setting [2], the inhibition of growth at 5 µM is -6.5%. Turning to `C#CCN[C@@H]1CCc2ccccc21` [Rasagiline mesylate], the inhibition of growth at 5 µM (read-out: Parasite inhibition (%) mean) is 13.3%.

In the case of `COc1cc(OC)c(/C=C/S(=O)(=O)Cc2ccc(OC)c(NCC(=O)O)c2)c(OC)c1` [Rigosertib (ON-01910)], the inhibition of growth at 5 µM under setting [2] stood at 0.1%. Consider `Cc1c(C(=O)NN2CCCCC2)nn(-c2ccc(Cl)cc2Cl)c1-c1ccc(Cl)cc1` [Rimonabant (SR141716)], for which the inhibition of growth at 5 µM under setting [1] was determined as 5.1%.

Regarding `CCN(C)C(=O)Oc1cccc([C@H](C)N(C)C)c1` [Rivastigmine tartrate (Exelon)], the inhibition of growth at 5 µM under setting [2] came to 22.8%. For the compound `O=C(CCCCCCNC(=O)c1cnc(N(c2ccccc2)c2ccccc2)nc1)NO` [Rocilinostat (ACY-1215)], the inhibition of growth at 5 µM under setting [1] turned out to be 2.9%. `CC[C@H](CO)Nc1nc(NCc2ccccc2)c2ncn(C(C)C)c2n1` [Roscovitine (Seliciclib, CYC202)]: the inhibition of growth at 5 µM under setting [2] turned out to be 12.2%. On to `CC(C)c1nc(N(C)S(C)(=O)=O)nc(-c2ccc(F)cc2)c1/C=C/[C@@H](O)C[C@@H](O)CC(=O)O` [Rosuvastatin calcium (Crestor)], for which, under setting [1], the inhibition of growth at 5 µM was -0.1%. As for `CNCc1ccc(-c2[nH]c3cc(F)cc4c3c2CCNC4=O)cc1` [Rucaparib (AG-014699 , PF-01367338)], under setting [2], the inhibition of growth at 5 µM is 26.1%. Same read-out and setting: the value for `NC(=O)c1cn(Cc2c(F)cccc2F)nn1` [Rufinamide (Banzel)] was 1.7%. For the compound `C[C@H]1CCO[C@H]2Cn3cc(C(=O)NCc4ccc(F)cc4F)c(=O)c(O)c3C(=O)N21` [S/GSK1349572 (GSK1349572)], the inhibition of growth at 5 µM under setting [1] was 0.2%. On the same count and under the same terms, the value for `COc1ccc(NS(=O)(=O)c2sc3ccc(Cl)cc3c2C)cc1N1CCNCC1` [SB 271046] was -0.6%. The same measure, in the same setting: in the case of `CC1CCN(CC[C@H]2CCCN2S(=O)(=O)c2cccc(O)c2)CC1` [SB-269970 HCl] it was -10.7%.

Consider `O=S(=O)(c1ccccc1)c1cnc2c(N3CCNCC3)cccc2c1` [SB-742457], for which the inhibition of growth at 5 µM under setting [1] is 0.6%. As for `Cn1cc(-c2ccc3nnc(Sc4ccc5ncccc5c4)n3n2)cn1` [SGX-523], the inhibition of growth at 5 µM under setting [2] amounted to 45.5%. For the compound `CC1(C)CC(=O)c2c(C(F)(F)F)nn(-c3ccc(C(N)=O)c(N[C@H]4CC[C@H](O)CC4)c3)c2C1` [SNX-2112], under setting [1], the inhibition of growth at 5 µM was determined as 9.9%. On to `Cc1cccc(Nc2nc(-c3ccncc3)cs2)c1` [STF-62247], for which the inhibition of growth at 5 µM under setting [2] is 15.2%.

On to `N#C[C@@H]1C[C@@H]2C[C@H]2N1C(=O)[C@@H](N)C12CC3CC(CC(O)(C3)C1)C2` [Saxagliptin (BMS-477118,Onglyza)], for which, under setting [2], the inhibition of growth at 5 µM is 9.7%. As to `Cc1cc(C)c(/C=C2\C(=O)Nc3ccccc32)[nH]1` [Semaxanib (SU5416)], under setting [1], the inhibition of growth at 5 µM was -78.8%. Regarding `C[C@H](Cc1cc2c(c(C(N)=O)c1)N(CCCO)CC2)NCCOc1ccccc1OCC(F)(F)F` [Silodosin (Rapaflo)], the inhibition of growth at 5 µM under setting [2] amounted to 47.9%. Turning to `N[C@@H](CC(=O)N1CCn2c(nnc2C(F)(F)F)C1)Cc1cc(F)c(F)cc1F` [Sitagliptin phosphate monohydrate], under setting [1], the inhibition of growth at 5 µM was 1.1%.

`O=C(O)C(O)Cc1ccc(O)c(O)c1` (stereo not shown) [Sodium Danshensu]: the inhibition of growth at 5 µM under setting [1] came to 2.2%. Still for that read-out and setting: in the case of `O=S(=O)(O)Oc1ccc(C(c2ccc(OS(=O)(=O)O)cc2)c2ccccn2)cc1` [Sodium Picosulfate] it was 0.3%; in that of `CCCC(=O)[O-].[Na+]` [Sodium butyrate], 23.1%. For `CNC(=O)c1cc(Oc2ccc(NC(=O)Nc3ccc(Cl)c(C(F)(F)F)c3)cc2)ccn1` [Sorafenib (Nexavar)], under setting [2], the inhibition of growth at 5 µM was found to be 55.5%. `OC[C@@H](O)[C@@H](O)[C@H](O)[C@@H](O)CO` [Sorbitol (Glucitol)]: the inhibition of growth at 5 µM under setting [1] was -66.9%. Same read-out and setting: in the case of `CC(=O)NS(=O)(=O)c1ccc(N)cc1` [Sulfacetamide Sodium] it was 0.9%; in that of `CNCC(O)c1ccc(O)cc1` (stereo not shown) [Synephrine HCl], 3.7%; in that of `CCc1nc(-c2cccc(C)c2)c(-c2ccnc(NC(=O)c3ccccc3)c2)s1` [TAK 715], 22.5%. As for `Nc1nc(N)c2nc(-c3cccc(O)c3)c(-c3cccc(O)c3)nc2n1` [TG100-115], the inhibition of growth at 5 µM under setting [2] came to 9.5%. Regarding `Cc1cnc(Nc2ccc(OCCN3CCCC3)cc2)nc1Nc1cccc(S(=O)(=O)NC(C)(C)C)c1` [TG101348 (SAR302503)], the inhibition of growth at 5 µM under setting [1] is 8.5%. In the case of `Clc1ccccc1C(c1ccccc1)(c1ccccc1)n1cccn1` [TRAM-34], the inhibition of growth at 5 µM under setting [2] amounted to 2.6%. For the compound `CCOC(=O)c1ccc(C#Cc2ccc3c(c2)C(C)(C)CCS3)nc1` [Tazarotene (Avage)], the inhibition of growth at 5 µM under setting [1] is -0.7%. Take `Cc1cn([C@@H]2C[C@@H](O)[C@H](CO)O2)c(=O)[nH]c1=O` [Telbivudine (Sebivo, Tyzeka)]: the inhibition of growth at 5 µM under setting [1] is 12.9%.

As for `CCOC(=O)[C@H](CCc1ccccc1)N[C@H]1CS[C@H](c2cccs2)CN(CC(=O)O)C1=O` [Temocapril HCl], the inhibition of growth at 5 µM under setting [2] amounted to 31.7%. On to `C[C@H](Cn1cnc2c(N)ncnc21)OCP(=O)(O)O` [Tenofovir (Viread)], for which the inhibition of growth at 5 µM under setting [2] was found to be 0%.

`CC(C)OC(=O)OCOP(=O)(CO[C@H](C)Cn1cnc2c(N)ncnc21)OCOC(=O)OC(C)C` [Tenofovir Disoproxil Fumarate]: the inhibition of growth at 5 µM under setting [2] is 0.5%. `CC(S)C(=O)NCC(=O)O` (stereo not shown) [Tiopronin (Thiola)]: the inhibition of growth at 5 µM under setting [1] is 0.9%. Turning to `C[N+]1(C)[C@@H]2C[C@@H](OC(=O)C(O)(c3cccs3)c3cccs3)C[C@H]1[C@@H]1O[C@@H]12` [Tiotropium Bromide hydrate], the inhibition of growth at 5 µM under setting [1] is -0.7%. For `COc1cc2nccc(Oc3ccc(NC(=O)Nc4cc(C)on4)c(Cl)c3)c2cc1OC` [Tivozanib (AV-951)], the inhibition of growth at 5 µM under setting [2] was -5.5%. As to `C[C@H]1CCN(C(=O)CC#N)C[C@@H]1N(C)c1ncnc2[nH]ccc12` [Tofacitinib (CP-690550, Tasocitinib)], the inhibition of growth at 5 µM under setting [1] turned out to be 11.2%. On to `Cc1ccc(O)c([C@H](CCN(C(C)C)C(C)C)c2ccccc2)c1` [Tolterodine tartrate (Detrol LA)], for which the inhibition of growth at 5 µM under setting [1] amounted to 2.2%. As to `CCC(=O)N1CCN(c2ccc(-n3c(=O)ccc4cnc5ccc(-c6cnc7ccccc7c6)cc5c43)cc2C(F)(F)F)CC1` [Torin 1], the inhibition of growth at 5 µM under setting [1] is 17.8%. For `Nc1ccc(-c2ccc3ncc4ccc(=O)n(-c5cccc(C(F)(F)F)c5)c4c3c2)cn1` [Torin 2], the inhibition of growth at 5 µM under setting [1] was 25.1%. Turning to `CCC(COC(=O)c1cc(OC)c(OC)c(OC)c1)(c1ccccc1)N(C)C` (stereo not shown) [Trimebutine], under setting [2], the inhibition of growth at 5 µM came out at 1.4%. Turning to `CN1CCc2c(c3ccccc3n2Cc2ccc(C(=O)NO)cc2)C1` [Tubastatin A HCl], the inhibition of growth at 5 µM under setting [1] came to 2.3%. Still for that read-out and setting: the value for `O=C(Nc1ccc(S(=O)(=O)Nc2ccccc2Cl)c(Cl)c1)c1ccccn1` [VU 0364439] was -0.9%; that for `CC(C)(CO)c1cc2cc(NC(=O)C3(c4ccc5c(c4)OC(F)(F)O5)CC3)c(F)cc2n1C[C@@H](O)CO` [VX-661] was 0.6%.

Take `CC(C)[C@H](N)C(=O)OCCOCn1cnc2c(=O)[nH]c(N)nc21` [Valaciclovir HCl]: under setting [1], the inhibition of growth at 5 µM amounted to 0.1%. Take `c1cnc2cc3c(cc2n1)C1CNCC3C1` [Varenicline tartrate]: under setting [2], the inhibition of growth at 5 µM worked out at 0%.
